Reference: patent US11638709B2, “Rucaparib, Talazoparib, Veliparib, Olaparib and AZD 2461 for treating impaired skin wound healing” (AKRIBES BIOMEDICAL GMBH, priority 2017, dated 2023)

Legend:
[1] = tested on: primary human dermal fibroblasts (HDF); assay: Fibroblast-derived matrix (FDM) formation assay (3D) with wound exudate; format: cell-based; conditions: for 3D fibroblast culture (FDM formation), effect of PARP inhibitors: FIG. 7, WE from patient #78
Description: HDF cells were seeded at 5000 cells/well on day −3 into 96-well tissue culture plates (1250 cells/well for 384-well plates), which had been pre-coated for 1 hour at 37° C. with 0.2% gelatin solution (Sigma). When the cells reached confluence (=day 0), a matrix promoting supplement (vitamin C: 2-phospho-L-ascorbic acid trisodium salt, 100 μg/ml; Sigma) was added together with test samples containing PDGF-BB, TGF-ß1 or graded concentrations of compounds −/+WE as described for the HDF proliferation assay. After 4 days, medium was replaced by fresh vitamin C—and stimulus—as well as compound-containing medium, maintaining the conditions initiated on day 0. TGF-ß1 and PDGF-BB were included as positive controls to promote FDM formation and cell growth, respectively. After a total incubation time of 8 days, FDM production was measured in fixed cultures via SRB staining and evaluated as described above. In some cases, the experiment was stopped and evaluated already on day 4.
Low molecular weight compounds (see list in Table 1) were dissolved in DMSO (Bioreagent for cell culture, Sigma) at 10 mM or 100 mM and diluted at least 1:1000 in medium for cellular assays (final DMSO concentration ≤0.1%).
Cells were incubated with compounds for 72 hours in proliferation assays and up to 8 days for FDM assay (refreshed after 4 days). When compounds were tested for their effect on WE stimulation, the incubation of cells with compounds was started and ended simultaneously with WE-incubation.

[2] = tested on: IL-1ß secretion by primary human dermal fibroblasts; assay: IL-1ß secretion in the HDF proliferation assay with wound exudate (ELISA); format: cell-based; conditions: FIG. 20
Description: At the end of the 72-hour incubation period, supernatants were removed for the determination of IL-1ß, and the cells were fixed with 4% paraformaldehyde (Morphisto) for 15 minutes at room temperature and washed 3 times with PBS. A control plate was fixed after the overnight adherence of the cells (day 1) to determine the starting cell number.
IL-1ß levels were determined with a commercial ELISA kit. The amount of IL-1ß contained in the wound exudate added to the cells was subtracted from the total IL-ß in the supernatants in order to determine the cytokine secreted by the cells.

[3] = tested on: macrophages in co-culture with fibroblasts; assay: Fibroblast-macrophage coculture with wound exudate (FACS, ELISA); format: cell-based, human; conditions: wound exudate #78; for percentage of live cells in the FACS CD45-gate (macrophages): FIG. 17 A; for macrophage M2 marker CD206: FIG. 17 B; for proinflammatory cytokine IL-1α induced by wound exudate: FIG. 17 C
Description: CD14^+ monocytes, isolated from PBMC of healthy donors by magnetic bead separation were incubated either alone or in the presence of primary human dermal fibroblasts (CellNTec) or fibroblast-derived matrices (FDM). FDM had been generated from primary human dermal fibroblasts by a 3-week incubation with the growth supplements vitamin C or insulin and EGF (vitamin C: 2-phospho-L-ascorbic acid trisodium salt, 100 μg/ml; human EGF, 5 ng/ml; human insulin, 5 μg/ml). Alternatively, fibroblast monolayer cultures can be used as well. After 4 days to a week to allow for macrophage differentiation in the presence or absence of M-CSF (25 ng/ml), the cultures were stimulated overnight with graded concentrations of test compounds in the absence or presence of various dilutions of sterile-filtered WE. IFN-g (50 ng/ml), LPS (100 ng/ml) and IL-4 (25 ng/ml) or combinations thereof served as controls for M1 and M2 macrophage induction. For negative control samples, medium was added instead of specific stimuli. WE were added to the culture medium for overnight stimulation at dilutions ranging from 1:25 to 1:100.
Supernatants were harvested and frozen for cytokine determination by ELISA, and cells were harvested and subjected to FACS analysis, gating on the monocyte population. Geometric means or mean fluorescence intensities (MFI) were used to quantify surface marker expression.
ELISA: CXCL10 and IL-23p19 for M1 macrophages and CCL22 and CCL18 as M2 macrophage markers, IL-1alpha, IL-1beta and TNF-alpha as pro-inflammatory markers indicative of an M1 phenotype.
Cells were harvested and resuspended in FACS buffer (PBS containing 2% FCS). Unspecific antibody binding was prevented by incubation with human Trustain FCR blocking solution (Biolegend, #422302) on ice for 10 minutes. The following fluorchrome-conjugated antibodies from eBioscience (now ThermoFisher Scientific) were used to detect specific surface markers by staining on ice for 30 minutes: CD38-PerCPeFluor710 (#46-0388-42), CD197-APC (#17-1979-42), CD206-AF488 (#53-2069-42), CD209-PerCP Cy5.5 (#45-2099-42). Co-staining with CD45 eFluor (#506 69-0459-42) was used to distinguish macrophages from primary human fibroblasts when analyzed from co-cultures. After washing cells with FACS buffer, they were fixed with 1% paraformaldehyde in PBS and stored at 4° C. in the dark until data were acquired on a Gallios flow cytometer from Beckman Coulter and analyzed with the Kaluza analysis software 1.3.

[4] = tested on: wound exudate-induced pig wounds; assay: Porcine model of delayed wound healing induced by human wound exudates; format: in vivo; conditions: veliparib 10 mM, talazoparib 1 mM
Source text: The pig is regarded as the species with the highest correlation to man in skin anatomy and physiology. Pig wounds tend to heal by a combination of granulation tissue formation and contraction, similar to human wounds, and porcine wound healing studies show a high concordance with human studies. We developed a chronically inflamed porcine wound model. Acute pig wounds were stimulated by a combination of human chronic wound fluids and the toll-like receptors 7 and 8 (TLR7,8) agonist resiquimod (R848).
Female domestic white pigs at the age of 10-12 weeks and a body weight of approximately 12 kg were sedated with 20 mg Ketamin/2 mg Xylacin i.m. followed by inhalation anesthesia via Isofluran. Immediately after induction of anesthesia, a fentanyl transdermal patch (50 μg/h) was applied to control postsurgical pain. The fentanyl patch was replaced daily for the first 3 days after surgery and afterwards only when signs of pain were apparent. Before wounding, the back hair of the animals was clipped and the skin was cleaned with Braunol and disinfected with Skinsept. Then a total of 24 full-thickness excisional wounds per animal were applied using a 6 mm disposable biopsy punch. Immediately after wounding 50 μl of a 0.05% R848 gel was applied topically to the wounds which were covered with dressing (Mölnlycke Health Care AB, Sweden). 6 hours later, the wounds were treated with 3% HPMC (hydroxypropyl methylcellulose)-gellified human wound exudates or human serum as controls. Wound exudates had been harvested from negative pressure wound therapy systems used to treat patients diagnosed with chronic ulcers. Induction of wound inflammation by R848 and wound exudate was carried out for a total of 5 consecutive days.
From day 6 to day 10, veliparib and talazoparib at 10 mM and 1 mM, respectively, were dissolved in vehicle (50% propylene glycol/47.5% water/0.5% Tween 80/2.0% HPMC), applied to the wounds once daily and covered with dressing. Until day 12, wounds and surrounding skin were clinically examined once daily, upon dressing change, and observed changes were scored on a scale from 0-3. The following criteria were used:
The total achievable score (non-healing) is 19. Healing is associated with low scores.

[5] = FIG. 4, 3D fibroblast culture with WE
[6] = FIG. 18, induced by WE #91, topical once daily day 6-10
[7] = FIG. 19, induced by WE #43, day 6-10

| Compound | formation of fibroblast-derived matrix, optically evaluated by microscopy [1, 5] | formation of fibroblast-derived matrix, optically evaluated by microscopy ([1]; FIG. 4, 3D fibroblast culture with WE, listed as talazoparib) | 3D fibroblast culture (FDM formation), effect of PARP inhibitors [1] | 3D fibroblast culture (FDM formation), effect of PARP inhibitors ([1]; listed as talazoparib) | wound exudate-induced IL-1ß secretion [2] | percentage of live cells in the FACS CD45-gate (macrophages) [3] | macrophage M2 marker CD206 [3] | proinflammatory cytokine IL-1α induced by wound exudate [3] | delayed pig wound healing (time course, clinical score) [4, 6] | delayed pig wound healing (time course, clinical score) [4, 7] | formation of fibroblast-derived matrix, combination with dexamethasone ([1]; FIG. 4, 3D fibroblast culture with WE, microscopy) | formation of fibroblast-derived matrix, veliparib and glucocorticoids combined ([1]; FIG. 5, WE of patient #78 (diabetes, immunosuppression after kidney transplantation)) | formation of fibroblast-derived matrix, veliparib and glucocorticoids combined ([1]; FIG. 6, WE of patient #49 (non-diabetic, non-immunosuppressed)) |
| --- | --- | --- | --- | --- | --- | --- | --- | --- | --- | --- | --- | --- | --- |
| Cn1ncnc1[C@H]1c2n[nH]c(=O)c3cc(F)cc(c23)N[C@@H]1c1ccc(F)cc1 [Talazoparib] | “cleaned up” WE-induced fibroblast matrix inhibition | particularly strong and beneficial | most active of the PARP inhibitors tested in 3D culture | strong and consistent positive effect | reducing IL-1ß secretion | dose-dependently increased | dose-dependently increased | reduced | improve wound healing | improves wound healing |  |  |  |
| C[C@]1(c2nc3c(C(N)=O)cccc3[nH]2)CCCN1 [Veliparib, 2-((2R)-2-methylpyrrolidin-2-yl)-1H-benzimidazole-4-carboxamide] | “cleaned up” WE-induced fibroblast matrix inhibition |  | strong and consistent positive effect |  | reducing IL-1ß secretion | dose-dependently increased | dose-dependently increased | reduced | improve wound healing | only a minor effect | superior to each substance alone | enhances the effect of glucocorticoids | could be enhanced with glucocorticoids, but not vice versa |
